# Patent US20100075894A1, “REDUCING ER STRESS IN THE TREATMENT OF OBESITY AND DIABETES” (HARVARD UNIVERSITY, priority 2004, published 2010)
# Legend:
# [1] = tested on: Fao liver cells; test: ER stress inducers and insulin action in Fao liver cells; format: cell-based, rat
# Procedure: (§1) (A) ER stress was induced in Fao liver cells by a 3-hour treatment with 5 μg/ml tunicamycin (Tun). Cells were subsequently stimulated with insulin (Ins). IRS-1 tyrosine and serine (Ser307) phosphorylation, Akt phosphorylation (Ser473), insulin receptor (IR) tyrosine phosphorylation, and their total protein levels were examined using either immunoprecipitation (IP) followed by immunoblotting (IB) or direct immunoblotting. (B) Quantitation of IRS-1 (tyrosine and Ser307), Akt (Ser473), and IR (tyrosine) phosphorylation under the experimental conditions described in (A) with normalization to protein levels for each molecule. (C) Inhibition of ER stress-induced (300 nM thapsigargin for 4 hours) Ser307 phosphorylation of IRS-1 by JNK-1 inhibitor, SP600125 (JNKi, 25 μM), (D) Quantitation of IRS-1 Ser307 phosphorylation under conditions described in (C). (E) Reversal of ER stress-induced inhibition of insulin-stimulated tyrosine phosphorylation (pY) of IRS-1 by a JNK inhibitor. (F) Quantitation of insulin-induced IRS-1 tyrosine phosphorylation levels described in (E). (G) JNK activity, Ser307 phosphorylation of IRS-1, and total IRS-1 levels at indicated times following tunicamycin treatment (Tun, 10 μg/ml for 1 hour) in IRE-1α^+/+ and IRE-1α^−/− fibroblasts. (H) Insulin-stimulated IRS-1 tyrosine phosphorylation and total IRS-1 levels following tunicamycin treatment (Tun, 10 μg/ml for 1 hour) in IRE-1α^+/+ and IRE-1α^−/− fibroblasts. […] All graphs show mean±SEM from at least 2 independent experiments and statistical significance from the controls is indicated by * with p<0.005.
# (A) ER stress was induced in Fao cells by 1 hour treatment with 300 nM thapsigargin (Thap), and cells were subsequently stimulated with insulin (Ins). IRS-1 tyrosine phosphorylation (pY) and serine phosphorylation (pSer307), insulin receptor (IR) tyrosine phosphorylation, and total protein levels were examined using either immunoprecipitation (IP) followed by immunoblotting (IB) or direct immunoblotting. (B) Fao cells were treated with sulindac sulfide (SS: 0, 7.5, 30, and 60 μM) for 45 minutes with or without an additional hour of exposure to 300 nM thapsigargin (Thap). IRS-1 serine phosphorylation and total IRS-1 protein levels were examined as described above.
# To investigate whether ER stress interferes with insulin action, we pretreated Fao liver cells with tunicamycin and thapsigargin, agents commonly used to induce ER stress. […] IRS-1 is a substrate for insulin receptor tyrosine kinase and serine phosphorylation of IRS-1, particularly mediated by JNK, reduces insulin receptor signaling (Hirosumi et al., Nature 420:333 (2002); incorporated herein by reference).
# Cells: Rat Fao liver cells were cultured with RPMI 1640 (Gibco, Grand Island, N.Y.) containing 10% fetal bovine serum (FBS). […]
# [2] = tested on: IRE-1α^−/− and wild type (WT) fibroblasts; test: tunicamycin in IRE-1α+/+ and IRE-1α−/− fibroblasts; format: cell-based, mouse
# Text: JNK activity was examined at indicated times following treatment with tunicamycin in IRE1a+/+ and IRE-1a−/− fibroblasts using an […] kinase assay and recombinant c-jun as substrate. JNK activity and total JNK levels (a). Phosphorylation of IRS-1 at ser307 residue in IRE1a+/+ and IRE-1a−/− fibroblasts following treatment with tunicamycin following IRS-1 immunoprecipitation (IP) and immunoblotting (IB) with an IRS-1 phosphoserine 307-specific antibody (b). Insulin (ins)-stimulated IRS-1 tyrosine phosphorylation and total IRS-1 in levels following treatment of IRE1a+/+ and IRE-1a−/− fibroblasts with tunicamycin.
# as §1
# In the presence of ER stress, increased phosphorylation of inositol requiring kinase-1α (IRE-1α) leads to recruitment of TNF-α receptor-associated factor 2 (TRAF2) protein and activates JNK (Urano et al., Science 287:664 (2000); incorporated herein by reference). To address whether ER stress-induced insulin resistance is dependent on intact IRE-1α, we measured JNK activation, IRS-1 serine phosphorylation, and insulin receptor signaling upon exposure of IRE-1α^−/− and wild type (WT) fibroblasts to tunicamycin. […]
# [3] = Fao cells pretreated with the agent
substance,measurement,setting,value
tunicamycin,insulin-induced Akt phosphorylation,[1]; [3],suppressed
same,serine phosphorylation of IRS-1,[1]; [3],significant increase
same,insulin-stimulated tyrosine phosphorylation of IRS-1,[1]; Fao liver cells pretreated with the agent,significantly decreased
same,insulin-stimulated tyrosine phosphorylation of IRS-1,[2]; IRE-1α−/− cells,no such effect was detected
same,insulin-stimulated tyrosine phosphorylation of IRS-1,[2]; WT cells,inhibited
same,JNK activation,[2]; WT fibroblasts,strong activation of JNK
same,phosphorylation of IRS-1 at Ser307,[2]; WT fibroblasts,stimulated
